Assay results reported in patent publication US20100056622A1, “Methods of Using Ramelteon to Treat Patients Suffering from a Variety of Neurodegenerative Diseases” (priority 2008, published 2010).

Tests used:
[1] = test system: liver function after hemorrhagic shock and reperfusion; settings: rats; cited from earlier work
[2] = test system: mouse cerebellar granule cells; settings: cited from earlier work
[3] = test system: patient with Probable Dementia with Lewy Bodies; assay: Case report Example 1: ramelteon in a patient with Probable Dementia with Lewy Bodies; assay type: in vivo, human; settings: 2 week follow-up
Method: A person with a 4 year history of Probable Dementia with Lewy Bodies was treated with ramelteon as follows. The patient presented for treatment was experiencing poor sleep (i.e., interval insomnia with only 3-4 hours of sleep at night), fatigue, weight loss, poor concentration, anhedonia, irritability, social withdrawal, but no depressive mood or depressive cognitions. The patient would nap for an hour in the afternoons, consistent with Excessive Daytime Somnolence (EDS), nocturnal insomnia, or dopamine agonist therapy. They admitted to some anxiety daily in the afternoons lasting up to an hour, but had no somatic symptoms with this. Confusion was mild, but occurred once daily, and they had hallucinated only once, 6 weeks previously. There was significant nocturnal incontinence associated with the insomnia, with 4 or more episodes per night. The Neuropsychiatric Inventory Questionnaire (NPI-Q) was administered with the result being a score of 11 (delusions 1, agitation 2, irritability 1, nighttime behaviors 6, appetite 1). The […] al. Apathy Scale was also administered with the result being a score of 31. Ramelteon was administered beginning at 8 mg at bedtime and increased after 3 days to 16 mg by mouth each night at bedtime. At a 2 week follow-up, the patient began sleeping 7 hours each night, with only 2 episodes of incontinence at night.

[4] = test system: patient with Probable Parkinson's Disease Dementia; assay: Case report Example 3: ramelteon in a patient with Parkinson Disease and Probable Parkinson's Disease Dementia (person); assay type: in vivo, human; settings: 10 weeks
Method: A person with an 18 year history of Parkinson Disease with subsequent development of Probable Parkinson's Disease Dementia was treated with ramelteon. The patient presented was experiencing dementia (i.e., memory loss, inattention, and dysexecutive syndrome), initial and interval insomnia, and typical features of Parkinson's disease (i.e., bradykinesia, rigidity, resting tremor, and postural instability). The patient was started on ramelteon, 8 mg each night at bedtime, and was seen again 10 weeks later. DRS-2 Initiation (i.e., categorical naming reflecting temporal lobe function) improved from a score of 31 to 34, Controlled Oral Word Association Test S Subtest (i.e., naming reflecting frontal lobe function) from 14 to 17, CLOX 1 (i.e., reflecting executive function) from 6 to 8, and ADCS-ADL disability (i.e., reflecting ability to perform activities of daily living) from 43 to 47. Thus, treatment with ramelteon was associated with improvements in temporal and frontal lobe—related naming, executive function, and overall ability to cognitively function.

melatonin-1 receptor = melatonin-1 receptor (Homo sapiens, UniProt P48039); settings: cited from earlier work
Sequence of melatonin-1 receptor (P48039 whole entry): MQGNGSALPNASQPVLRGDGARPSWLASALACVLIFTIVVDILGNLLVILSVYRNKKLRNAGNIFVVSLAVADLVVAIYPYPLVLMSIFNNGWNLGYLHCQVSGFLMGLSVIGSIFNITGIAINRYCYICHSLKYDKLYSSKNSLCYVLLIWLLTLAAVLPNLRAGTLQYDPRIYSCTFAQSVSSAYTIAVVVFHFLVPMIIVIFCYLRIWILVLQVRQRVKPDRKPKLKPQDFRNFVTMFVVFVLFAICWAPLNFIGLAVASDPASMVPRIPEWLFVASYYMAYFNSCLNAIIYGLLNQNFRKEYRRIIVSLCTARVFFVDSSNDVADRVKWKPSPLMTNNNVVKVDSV

melatonin-2 receptor = biological target: T1, melatonin-2 receptor (Homo sapiens, UniProt P49286); settings: cited from earlier work
T1 sequence (P49286 1-362): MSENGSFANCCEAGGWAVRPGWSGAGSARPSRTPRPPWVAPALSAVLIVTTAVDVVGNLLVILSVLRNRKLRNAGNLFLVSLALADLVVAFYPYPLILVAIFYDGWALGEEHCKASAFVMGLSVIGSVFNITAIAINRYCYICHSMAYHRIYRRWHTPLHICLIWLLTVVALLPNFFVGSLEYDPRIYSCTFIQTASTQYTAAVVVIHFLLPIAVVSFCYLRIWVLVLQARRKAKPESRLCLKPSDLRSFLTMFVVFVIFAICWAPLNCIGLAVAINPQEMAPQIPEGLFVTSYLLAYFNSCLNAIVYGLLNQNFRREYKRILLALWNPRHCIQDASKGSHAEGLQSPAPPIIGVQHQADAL

[5] = test system: patient with Probable Parkinson's Disease Dementia; assay: Case report Example 2: ramelteon in a patient with Probable Parkinson's Disease Dementia (person); assay type: in vivo, human; settings: after 2 weeks
Method: A person with a 10 year history of Probable Parkinson's Disease Dementia was treated with ramelteon as follows. The patient presented for treatment was experiencing dementia EDS, REM behavior disorder (i.e., RBD, manifest in acting out their dreams while asleep), and symptoms of Parkinson's disease (e.g., bradykinesia, rigidity, resting tremor, and postural instability). […] After 2 weeks of treatment with ramelteon, 8 mg each night at bedtime, scores had improved on the ESS from 19 to 16, DRS-2 (DRS-2 Conceptualization score) improved from 35 to 38, Memory from 24 to 25, Total from 138 to 141, and Trails (Trails B 68 to 60, Trails B-Trails A 36 to 28). Thus, treatment with ramelteon led to demonstrable improvement in excessive daytime sleepiness, concept formation (i.e., similitudes and differences), memory (i.e., spontaneous recall, factual knowledge, and recognition), overall cognition, and measures of executive function.

## CCC(=O)NCC[C@@H]1CCc2ccc3c(c21)CCO3 [ramelteon, (S)—N-[2-(1,6,7,8-tetrahydro-2H-indeno-[5,4-b]furan-8-yl)ethyl]propionamide]
[1]
  recovery of the liver after reperfusion: improved recovery of the liver after reperfusion
[2]
  concentrations of BDNF in neurons: increased concentrations of BDNF in neurons
[3]
  MMSE scores: did not show a change
  afternoon anxiety: no longer of concern
  anhedonia: absent
  appetite: improved
  confusional episodes, intensity: reduced in intensity
  hallucinations: continued in remission
  irritability: markedly better
  social withdrawal: absent
[3]; 8 mg then 16 mg by mouth at bedtime, before treatment 3-4 hours
  sleep each night: 7 h
[3]; before treatment 1
  NPI-Q appetite: 1
  NPI-Q delusions: 0
[3]; before treatment 2
  NPI-Q agitation: 0
[3]; before treatment 4 or more episodes per night
  episodes of incontinence at night: 2 episodes
[3]; before treatment 6
  NPI-Q nighttime behaviors: 1
[3]; before treatment 11
  NPI-Q score (total): 2
[3]; before treatment 31
  Apathy Scale (Starkstein et al.) score: 37
[3]; before treatment once daily
  confusional episodes, frequency: half as frequent
[4]; 8 mg at bedtime, before treatment 6
  CLOX 1: 8
[4]; 8 mg at bedtime, before treatment 14
  Controlled Oral Word Association Test S Subtest: 17
[4]; 8 mg at bedtime, before treatment 43
  ADCS-ADL activities of daily living score: 47
[4]; 8 mg each night at bedtime, before treatment 31
  DRS-2 Initiation score: 34
melatonin-1 receptor
  agonist potency relative to melatonin: more potent at these sites than melatonin itself
melatonin-2 receptor
  agonist potency relative to melatonin: more potent at these sites than melatonin itself
[5]; 8 mg at bedtime, before treatment 24
  DRS-2 Memory score: 25
[5]; 8 mg at bedtime, before treatment 35
  DRS-2 Conceptualization score: 38
[5]; 8 mg at bedtime, before treatment 36
  Trails B-Trails A: 28
[5]; 8 mg at bedtime, before treatment 68
  Trails B: 60
[5]; 8 mg at bedtime, before treatment 138
  DRS-2 Total score: 141
[5]; 8 mg each night at bedtime, before treatment 19
  Epworth Sleepiness Scale (ESS) score: 16
